Measurements: patent US20080161232A1, “C5a Receptor Antagonist” (JERINI AG, priority 2005, published 2008)
Where two headings read alike, the source gives them in different places. Positions of bridges follow the written chain, without caps; N, C: chain ends. Non-standard residues stand in square brackets, D forms with d. Residues, ends and D or L forms follow the SMILES beside them. Bta = N[C@@H](Cc1csc2ccccc12)C(=O)O; d(hLeu) = CC(C)CC[C@@H](N)C(=O)O; dCha = N[C@H](CC1CCCCC1)C(=O)O; Orn = NCCC[C@H](N)C(=O)O

Tests used:
human PMNs = conditions: cellular myeloperoxidase release assay with human PMNs; read-out: IC50 (antagonistic activity), WO 99/00406; cited from earlier work
Wistar rats = assay: Model of C5a induced neutropenia; type: in vivo; conditions: i.v. infusion 10 min before 2 μg/kg hr C5a i.v., FIG. 2
Excerpt: Efficacy of compound 149 in a model of C5a induced neutropenia
C5a induced neutropenia is a model for shock induced diseases (e.g. septic shock), where the systemic role of C5a (neutropenia, blood pressure decrease) plays an important role. The reason for the decrease of the neutrophils in the circulation is their binding to the vessel walls due to the C5a stimulus. These processes of neutrophil recruitment are playing an important role in many other diseases like reperfusion injury. This model was also described by Short et al. (1999 British Journal of Pharmacology 125: 551-554).
Female Wistar rats were treated i.p. with ketamine (80 mg/kg) and xylazine (12 mg/kg). A catheter was introduced in the jugular vein and the animals were subjected to the following procedure:
1. Rats were treated with vehicle or compounds according to the invention like compound 149 via i.v. infusion. A blood sample was taken one minute before compound treatment. 2. 10 min after compound infusion rats were treated with 2 μg/kg hr C5a i.v. (2 μg/kg over 1 min). […]
White blood cell count was measured with a haematology-cell-counter. […]
The differential cell count was determined as the sum of neutrophils, eosinophils, basophils, lymphocytes and monocytes of 100 cells. Then the percentage of the neutrophils in relation to all white blood cells was calculated.

human C5aR(CD88) [1] = biological target: T1, human C5aR(CD88) (Homo sapiens, UniProt P21730); assay: Determination of the IC50 value in an enzyme release assay (functional assay, antagonistic activity); type: cell-based; conditions: for inhibitory activity (in words): functional assay of example 11, noteworthy = IC50 less than 200 nM
T1 construct: expressed in transfected cells; host or cells: rat basophilic leukemia cells (RBL)
T1 sequence (P21730 1-350): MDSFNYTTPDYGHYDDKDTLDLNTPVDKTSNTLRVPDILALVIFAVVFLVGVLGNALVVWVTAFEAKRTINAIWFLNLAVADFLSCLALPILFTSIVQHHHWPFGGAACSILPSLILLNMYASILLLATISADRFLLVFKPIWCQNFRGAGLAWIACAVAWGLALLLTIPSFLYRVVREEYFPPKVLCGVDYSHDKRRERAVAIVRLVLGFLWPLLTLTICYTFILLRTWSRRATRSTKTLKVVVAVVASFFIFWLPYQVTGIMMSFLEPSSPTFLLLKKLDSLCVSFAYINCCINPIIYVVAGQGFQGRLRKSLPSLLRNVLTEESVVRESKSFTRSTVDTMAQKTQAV

BALB/c mice = assay: Model of immune complex mediated peritonitis (reverse passive Arthus reaction); type: in vivo; conditions: 1 mg/kg i.v. 15 min before Arthus reaction, lavage after 6 h, FIG. 1
Excerpt: Efficacy of compound 149 in a model of immune complex mediated peritonitis
Immune complex mediated peritonitis resembles the pathological conditions of immune complex related diseases like vasculitis, nephritis, arthritis, and farmer's disease. The associated animal model was described by Heller et al. (1999 Journal of Immunology 163: 985-994) and takes advantage of the pro-inflammatory effects of immune complexes formed after i.v. administration of the antigen and i.p. administration of the antibody.
BALB/c mice (6-8 weeks old) were treated i.v. with compound 149 (1 mg/kg bodyweight in 200 μl vehicle) 15 min before the initiation of the reverse passive Arthus reaction. Arthus reaction was induced through the administration of OVA (20 mg/kg i.v. in 200 μl PBS) and polyclonal anti-OVA Ab (rabbit; 800 μg/Maus i.p). After 6 h a peritoenal lavage with 2 ml PBS 0.1% BSA was done. The collected PE-cells were stained with DIFF-Quick. At least 20 visual fields (100× magnification) were analyzed for the presence of neutrophils.

human C5aR(CD88) [2] = biological target: T1, human C5aR(CD88); assay: Determination of EC50-values in an enzyme release assay (agonistic activity); type: cell-based; conditions: for agonistic activity (in words): cellular assay, up to a concentration of at least 1430 nM
Method: The assay procedure was described by Kohl (Kohl 1997 The Anaphylatoxins. In: Dodds, A. W., Sim, R. B. (Eds.), Complement: A Practical Approach. Oxford, pp. 135-163). Basophilic leukemia cells from rats (RBL), which express the human C5aR(CD88), were cultivated in DMEM with 10% fetal bovine serum, 100 U/ml penicillin, 100 μg/ml streptomycin and 2 mM glutamine (all components of the media from Biochrome, Berlin) to confluence at 37° C. and 10% CO2. The following specifications refer to single cell culture flask having a surface of 75 cm^2. Medium was decanted from cells. Cells were washed with 10 ml PBS (Dulbecco's PBS, Biochrome) and subsequently overlayed with 3 ml Cell Dissociation Solution (CDS, Sigma). Cells were incubated for 1 min at room temperature. Subsequently, CDS was removed and the cells were further incubated for 10-15 min at 37° C. for dissociation. In the assay, 20 μl of the solution containing the compound to be tested were used. This solution should not contain more than 2.8% DMSO. For the dilution process, the compounds were diluted in ⅓ or ½ steps. To 20 μl compound solution 75 μl of the RBL-cells were added, which were treated as follows: after dissociation cells were detached and warmed at 37° C. in 10 ml HAG-CM (20 mM HEPES; 125 mM NaCl, 5 mM KCl, 1 mM CaCl2, 1 mM MgCl2, 0,5 mM Glucose, 0,25% BSA. HEPES-preparation: 2.3 g/l HEPES-salt +2.66 g/l HEPES acid). Cells were counted and centrifuged (200×g, 10 min). The cell pellet was resuspended in preheated HAG-CM (i.e. Hepes-buffer NaCl-glucose-solution with calcium and magnesium), and the cell density was adjusted to 2×10^6 cells/ml. The cells were incubated at 37° C. for 5 min. Per ml cell suspension 27 μl of a cytochalasin B-solution were added (100 μg/ml in DMSO, Sigma). The cells were incubated for further 3 min at 37° C. 75 μl of the cell suspension were added to 20 μl compound solution leading to a volume of 95 μl per well. After incubation of the cells for 10 min at 37° C. 10 μl hrC5a (10.5 nM in HAG-CM, Sigma) per well were added. The cells were incubated for additional 5 min at 37° C. The mtp was then transferred to ice and centrifuged for 3 min at 4° C. with 1200×g. 75 μl of the supernatant were added to 100 μl substrate-solution (2.7 mg/ml p-nitrophenyl-N-acetyl-β-D-glucosaminide (Sigma) in 42.5 mM Na-acetate pH 4.5). The mtp was incubated for further 60 min at 37° C. 75 μl 0.4 M glycine pH 10.4 were added per well. The mtp was transferred into a reader and the absorption at 405 nm was measured. IC50-values were obtained following the equation; y=((A-D)/(1+(x/C)^B))+D.
Determination of EC50-Values in an Enzyme Release Assay
The determination of EC50-values was performed according to the procedure given in example II, with the exception that 30 μl of the test compound need to be mixed with 75 μl of the cell suspension mentioned in example 11. Neither preincubation nor addition of C5a for stimulation of enzyme release is needed.

C5aR [3] = biological target: T2, C5aR (Homo sapiens, UniProt P21730); conditions: compound numbers of WO 03/033528; read-out: antagonistic activity, WO 03/033528; cited from earlier work
T2 construct: measurements with isolated membranes from polymorphonuclear neutrophilic granulocytes (PMN membranes); host or cells: isolated PMN membranes (endogenous receptor)
T2 sequence (P21730 1-350): T1 sequence (P21730 1-350)

C5aR [4] = biological target: T2, C5aR; conditions: compound numbers of WO 03/033528; read-out: IC50 as a measure for affinity, WO 03/033528; cited from earlier work
[5] = Solubility determination for selected C5aR-antagonists; type: physicochemical
Method: Solubility Determination for Selected C5aR-Antagonists
[…] The undissolved part was removed by centrifugation after 24 h. The UV-absorption of the supernatant was measured and compared to a reference solution of the compound in 60% MeOH.

[6] = antagonistic activity, IC50 group in enzyme release assay, RBL cells expressing human C5aR(CD88), read-out: activity (group)

IC50 (human C5aR(CD88) [1]; functional assay of example 11, values in text, read-out: IC50) [nM]	inhibitory activity (in words) (human C5aR(CD88) [1]; listed as Ac-Phe-[Orn-Pro-cha-Trp-Phe])	EC50 (human C5aR(CD88) [2]; agonistic activity, no C5a added, read-out: EC50) [nM]	Solubility in 20 mM HEPES pH 7.4 (% of 200 μM) ([5]; 20 mM HEPES pH 7.4, 24 h at RT)	solubility in aqueous HEPES buffer (pH 7.4) ([5]; HEPES buffer pH 7.4) [%]	Molecule	IC50 (human PMNs) [nM]	C5a-induced neutropenia (percentage of neutrophils over time) (Wistar rats)	IC50 (human C5aR(CD88) [1]; [6]) [nM]	inhibitory activity (in words) (human C5aR(CD88) [1])	influx of neutrophils / pro-inflammatory cells into the peritoneum (BALB/c mice)	agonistic activity (in words) (human C5aR(CD88) [2])	IC50 (C5aR [3]) [nM]	IC50 (C5aR [4]) [nM]
–	–	–	–	–	Me-Phe-Lys-Pro-cha-Trp-arg	85	–	–	–	–	–	–	–
–	–	–	–	–	CC(=O)N[C@@H](Cc1ccccc1)C(=O)N[C@@H](CCCN)C(=O)N1CCC[C@H]1C(=O)N[C@H](CCC(C)C)C(=O)N[C@@H](Cc1csc2ccccc12)C(=O)N[C@@H](Cc1ccccc1)C(N)=O [Compound 149, Ac-Phe-Orn-Pro-hle-Bta-Phe-NH2] (Ac-F[Orn]P[d(hLeu)][Bta]F-NH2)	–	reduces the C5a-induced neutropenia remarkable	10 to 20	noteworthy inhibitory activity	reduction of the influx of pro-inflammatory cells into the peritoneum	pure antagonists	–	–
23	noteworthy inhibitory activity	> 1430	8 % of 200 μM	8	CC(=O)N[C@@H](Cc1ccccc1)C(=O)N[C@H]1CCCNC(=O)[C@H](Cc2ccccc2)NC(=O)[C@H](Cc2c[nH]c3ccccc23)NC(=O)[C@@H](CC2CCCCC2)NC(=O)[C@@H]2CCCN2C1=O [Compound 1, Ac-Phe-[Orn-Pro-cha-Trp-Phe]] (Ac-F[Orn]P[dCha]WF; lactam 2-C)	–	–	20 to 50	without significant loss of activity	–	pure antagonists	28	450
